This series can be described thus: gradient 5% acetonitrile 3 min, to 50% in 2 min, to 85% in 15 min, held 3 min, 100 µL/min. The conditions noted are these: column: Zorbax Extend-C18 2.1 x 50 mm; eluents: water / acetonitrile, 0.1% formic acid. An outline of the steps: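 The mobile phases were water and acetonitrile, each with 0.1% formic acid, pumped at 100 μL/min through a Zorbax Extend-C18 column (2.1 × 50 mm, 1.8 μm). Pure standards were injected as mixtures of ~100 molecules and detected by a quadrupole time-of-flight mass spectrometer in positive and negative ionization mode. Retention time came from computationally picked adduct peaks, each inspected by hand.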
In turn, `COc1cccc(N2CCN(C(=O)Cn3ccc4c(SCc5ccccc5)nccc43)CC2)c1` displayed an RP-LC retention time of 775 s.

Turning to `O=C(N1CC(Oc2cccc(-c3nc(-c4ccccc4)no3)c2)C1)C1(c2ccccc2)CC1`, the RP-LC retention time was found to be 1310 s.

Compound `COc1cccc(CN2C[C@@H](CO)[C@H](c3nc(C4CC4)no3)C2)n1` gave an RP-LC retention time of 618 s.

Take `CCCN1C(=O)c2c(C(=O)NCc3ccc(F)cc3)ncn2CC1(C)C(=O)NC1CCCC1` (stereo not given): the RP-LC retention time came to 796 s.

With `CC(C)NC(=O)c1ccc(-c2nc3cc(NS(=O)(=O)Cc4ccccc4)ccc3n2C)cc1`, the RP-LC retention time is 667 s.

`O=C(Nc1ccc(Br)cc1F)Nc1c(-c2ccc(F)cc2)nc2ccccn12`: the RP-LC retention time was 744 s.

In the case of `COc1ccc(-n2nnc(-c3nc(-c4cccc(OC)c4)cs3)c2N)cc1`, the RP-LC retention time stood at 1070 s.

As for `CCCN1C(=O)C(C)(C(=O)Nc2ccc(OCC)cc2)Oc2cccnc21` (stereo not given), the RP-LC retention time was determined as 966 s.

As to `O=C1NCCCCCCN(C(=O)c2ccsc2)[C@H]2CCC[C@@H]12`, the RP-LC retention time is 733 s.

In turn, `COCCN1CCC(CNC(=O)C(=O)Nc2cccc(SC)c2)CC1` came in with an RP-LC retention time of 563 s.

`COc1ccc(S(=O)(=O)N2CCCC(C(=O)Nc3ccc4c(c3)OCO4)C2)cc1C` (stereo not given) came in with an RP-LC retention time of 957 s.

`Cc1cc(C(=O)NC(C)C)n[nH]1` gave an RP-LC retention time of 592 s.

In turn, `O=C(Nc1ccccc1C(F)(F)F)C1CCCN(C(=O)Cc2cccc3ccccc23)C1` (stereo not given) displayed an RP-LC retention time of 998 s.

`O=C(NCc1cccc(Cl)c1)C1CC(=O)N(c2n[nH]c3cccc(F)c23)C1` (stereo not given) registered an RP-LC retention time of 749 s.

As for `O=C(C1CCCN(c2ccc(-c3ccccc3)nn2)C1)N1CCN(c2ccccn2)CC1` (stereo not given), the RP-LC retention time worked out at 576 s.

`O=C(C1CCCN(c2nc3cccnc3s2)C1)N1CCN(c2cccc(Cl)c2)CC1` (stereo not given) yielded an RP-LC retention time of 1010 s.

As for `Cc1ccc(N2CC(C(=O)N(C)C)CC2=O)cc1` (stereo not given), the RP-LC retention time stood at 673 s.

Regarding `O=C(Cc1cccc(F)c1)NC1CCN(c2cc(-c3ccc(F)cc3)[nH]n2)C1` (stereo not given), the RP-LC retention time amounted to 716 s.

In turn, `COc1ccc2c(c1)C1(CCN(S(=O)(=O)c3cccc(Cl)c3)C1)C(=O)N2` (stereo not given) returned an RP-LC retention time of 866 s.

As for `Clc1ccccc1-c1ccnc2nc(-c3ccccc3)nn12`, the RP-LC retention time amounted to 928 s.

Take `Cc1csc(-c2csc(S(=O)(=O)N3CCC(Cc4ccccc4)CC3)c2)n1`: the RP-LC retention time worked out at 1270 s.

Compound `Cc1nc(NCCCn2ccnc2)nc(Nc2ccccc2)c1[N+](=O)[O-]` came in with an RP-LC retention time of 589 s.

As for `COc1cccc(NS(=O)(=O)c2cc(-c3[nH]ncc3C(=O)N3CCCCC3)oc2C)c1`, the RP-LC retention time came to 721 s.

As for `COC(=O)c1cc(S(=O)(=O)N2CCCC2C(=O)Nc2ccc(Br)c(C)c2)cn1C` (stereo not given), the RP-LC retention time worked out at 1010 s.

On to `Cc1ccc(-n2nc(N3CCN(C(=O)c4ccc(Br)o4)CC3)ccc2=O)cc1C`, for which the RP-LC retention time was found to be 875 s.

Compound `CCN1C(=O)C(C)(C(=O)NCc2cccc(C)c2)Oc2cccnc21` (stereo not given) showed an RP-LC retention time of 744 s.

The compound `Cc1cccc2c(=O)c3c([nH]c12)CCN(CC(=O)NCc1ccccc1)C3` returned an RP-LC retention time of 601 s.

`CC(=O)c1cccc(NC(=O)N2C[C@H](c3nc(-c4ccncc4)no3)[C@@H](C)C2)c1` returned an RP-LC retention time of 674 s.

The compound `Cc1nc(Cn2cccc2C(=O)Nc2ccc(F)cc2F)no1` gave an RP-LC retention time of 793 s.

On to `Cc1noc(-c2nc(Cc3cccc(F)c3)no2)n1`, for which the RP-LC retention time was found to be 940 s.

The compound `CCN(Cc1ccccc1)C(=O)CSc1cc(N2CCN(c3ccc(OC)cc3)CC2)ncn1` gave an RP-LC retention time of 964 s.

For `Cc1ccc2c(CN3CCN(c4ccccn4)CC3)cc(=O)oc2c1`, the RP-LC retention time was 634 s.

Consider `COc1cccc(-n2ccn3cc(-c4ccc(Br)cc4)nc3c2=O)c1`, for which the RP-LC retention time turned out to be 893 s.

Turning to `COc1ccccc1N1CCN(Cc2nc3nc(C)cc(N(C)C)n3n2)CC1`, the RP-LC retention time amounted to 606 s.

`CCn1c(=O)sc2cc(S(=O)(=O)N3CCC(C(=O)Nc4cccc(C)c4)CC3)ccc21` displayed an RP-LC retention time of 962 s.

As for `COc1cccc(NC(=O)NCCC2CCN(S(=O)(=O)c3ccccc3)CC2)c1`, the RP-LC retention time was found to be 870 s.

In the case of `CCn1cc(C)c(C(=O)O)c1CC(=O)N1CCc2ccccc2C1`, the RP-LC retention time came to 780 s.

With `CCc1nc2cc(-c3noc(Cc4ccc(OC)cc4)n3)ccc2o1`, the RP-LC retention time is 1030 s.

Regarding `CCN1CCCc2cc(C(=O)N3CCC4(CC3)OCCO4)sc21`, the RP-LC retention time was 603 s.

Regarding `COc1ccc(CNC(=O)Cn2c(=O)c3cc(-c4ccco4)nn3c3ncccc32)cc1`, the RP-LC retention time was 754 s.

For the compound `Cc1oc2ccn(Cc3cccc(F)c3)c(=O)c2c1C(=O)NCc1ccccc1F`, the RP-LC retention time came out at 1060 s.

Take `Cc1ccn2c(NC(=O)c3ccc(Cl)c([N+](=O)[O-])c3)c(-c3ccc(F)cc3)nc2c1`: the RP-LC retention time was determined as 757 s.

For the compound `CC(C)n1c(CCNC(=O)c2c(F)cccc2F)nc2cccnc21`, the RP-LC retention time is 632 s.

`Cc1c(-c2noc(-c3cccc(F)c3)n2)nnn1Cc1ccccc1` gave an RP-LC retention time of 1080 s.

For the compound `CCc1ccc(NC(=O)Cn2c(N3CCCCC3)nc(C)cc2=O)cc1`, the RP-LC retention time is 661 s.

`CCc1ccc(NC(=O)Cn2ccc3ccc(-c4nnc(C)o4)cc32)cc1` yielded an RP-LC retention time of 885 s.

`CCN(CC)CCNC(=O)c1sc(COc2ccccc2)nc1C` showed an RP-LC retention time of 638 s.

In turn, `Cc1ccc(-n2ncc3c(NCCN(C)C)ncnc32)cc1C` displayed an RP-LC retention time of 648 s.

`O=S(=O)(c1ccc(Br)s1)N1CCCC1c1nc(-c2ccc(F)cc2)no1` (stereo not given): the RP-LC retention time worked out at 1180 s.

In turn, `CCOC(=O)c1c(C)oc2ncnc(NCc3ccc4c(c3)OCO4)c12` came in with an RP-LC retention time of 1050 s.

The compound `O=C(Nc1cccc(C(F)(F)F)c1)C1CCN(C(=O)C2Sc3ccccc3NC2=O)CC1` (stereo not given) displayed an RP-LC retention time of 862 s.

`CCOc1ccccc1C(=O)n1nc(C)c(S(=O)(=O)N2CCOCC2)c1C` yielded an RP-LC retention time of 962 s.

On to `Cn1cc(-c2cc3n(n2)CCC(=O)N3CCCC(=O)NCc2ccco2)c2ccccc21`, for which the RP-LC retention time came to 775 s.

Regarding `CC1=C(c2ccccc2)S(=O)(=O)N=C1N1CCN(c2ccccn2)CC1`, the RP-LC retention time amounted to 632 s.

The compound `CCOc1ccc(N2CC(c3nc(-c4ccccc4C)no3)CC2=O)cc1` (stereo not given) displayed an RP-LC retention time of 931 s.

`Cn1nc(C(=O)N2CCN(c3cc(-c4ccccc4)[nH]n3)CC2)c2ccccc21` yielded an RP-LC retention time of 805 s.

Take `O=C(C1CCN(c2nc3ccc(-c4cccc(F)c4)nc3s2)CC1)N1CCCCC1`: the RP-LC retention time was 1070 s.

Take `COCCCNC(=O)C1CCN(S(=O)(=O)c2ccc3c(c2)NC(=O)CO3)CC1`: the RP-LC retention time is 627 s.

`CC(=O)N1CCc2cc(N3CC(C(=O)NCCC(C)C)CC3=O)ccc21` (stereo not given) returned an RP-LC retention time of 669 s.

Consider `CCN1CCN(c2ccc(N3CCCC(C(=O)N4CCN(c5ccccn5)CC4)C3)nn2)CC1` (stereo not given), for which the RP-LC retention time was found to be 574 s.

In the case of `Cc1ccc(-c2cn3c(CC(=O)Nc4ccc(F)c(Cl)c4)csc3n2)cc1C`, the RP-LC retention time was determined as 678 s.

On to `CCCc1c(C(=O)O)nnn1Cc1ccccc1Cl`, for which the RP-LC retention time amounted to 796 s.

Regarding `Cc1cc(C)n2nc(SCC(=O)NCc3cccs3)nc2n1`, the RP-LC retention time was 647 s.

As to `Cc1cccc(NC(=O)C2CCN(S(=O)(=O)c3cc(C(=O)N4CCCC4)n(C)c3)CC2)c1C`, the RP-LC retention time was determined as 843 s.

For the compound `Cc1nn(C)c(C)c1CCC(=O)N1CCN(S(C)(=O)=O)CC1`, the RP-LC retention time worked out at 543 s.

As for `CCCN(Cc1ccsc1)C(=O)c1ccc(OC)c(OC)c1OC`, the RP-LC retention time turned out to be 880 s.

On to `CSc1ccc(CNC(=O)CC2CCN(C(=O)c3[nH]c(C)cc3C)CC2)cc1`, for which the RP-LC retention time stood at 792 s.

The compound `O=C(C1CCN(c2ncnc3c2oc2ccccc23)CC1)N1CCN(c2ccccc2Cl)CC1` displayed an RP-LC retention time of 930 s.

In turn, `O=C(O)Cn1ncc2ccccc2c1=O` registered an RP-LC retention time of 572 s.

As to `CCc1ccc(N(CC)C(=O)Cn2cnc3nc4c(cc3c2=O)CCCC4)cc1`, the RP-LC retention time worked out at 885 s.

In the case of `COc1ccc2c(CCNC(=O)Nc3ccccc3)c[nH]c2c1`, the RP-LC retention time was determined as 791 s.

`O=C(Nc1ccc(-n2cnc(C(=O)N3CCC4(CC3)OCCO4)c2)nc1)C1CC1` showed an RP-LC retention time of 631 s.

Turning to `COc1cccc(-c2nc(N3CCSCC3)ncc2C(=O)O)c1`, the RP-LC retention time was 857 s.

For the compound `COc1ccc(-c2ncc3c(n2)CCN(S(=O)(=O)c2ccccc2C(F)(F)F)C3)cc1`, the RP-LC retention time came out at 1090 s.

`COCCNC(=O)C1CCc2sc(C(=O)N3CCCCCC3)cc2C1` (stereo not given) returned an RP-LC retention time of 682 s.

`OC1(c2ccc(Cl)cc2)CCN(Cc2c[nH]c3ccccc23)CC1` came in with an RP-LC retention time of 736 s.

Regarding `Cn1nc(-c2nc(C3CC3)no2)c2c1CCN(S(=O)(=O)c1cccc(F)c1)C2`, the RP-LC retention time worked out at 920 s.

`CCc1cc(=O)n(CC(=O)Nc2ccc3c(c2)OCCO3)c(-c2cccc(F)c2)n1` came in with an RP-LC retention time of 1090 s.

The compound `Cn1cc(-c2ccncc2)c(-c2ccc(OCc3ccc4ccccc4n3)cc2)n1` registered an RP-LC retention time of 717 s.

Consider `Nc1cc(C2CCN(C(=O)c3cccnc3)CC2)no1`, for which the RP-LC retention time turned out to be 554 s.

The values are drawn from the METLIN SMRT retention time set (Domingo-Almenara et al. 2019).
